Laboratory results from patent publication US20080063610A1, “Use of Beta-Homocyclocitral as an Agent Against Bad Breath” (SYMRISE GMBH & CO. KG, priority 2004, published 2008).
In brackets after ≈: the same amount, converted by molar mass.

How the values were obtained:
Type in all cases: cell-based
[1] = tested on: fresh morning saliva; test: In-vitro test to reduce bad breath (liquid medium inoculated with fresh morning saliva, sniffed by a panel)
Description: In-Vitro Test to Reduce Bad Breath
The test is based on the work of Goldberg and Rosenberg (Production of Oral Malodor in an in vitro System, S. Goldberg and M. Rosenberg, pp.143 -150, in: Bad Breath—A multidisciplinary Approach, Eds: D. van Steenberghe, M. Rosenberg, Leuven University Press, 1996) and has been adapted to improve reproducibility.
A sterile liquid medium inoculated with fresh morning saliva is incubated for a few days at 37° C. and then sniffed by a panel of testers.
An intensive odour characteristic of bad breath has formed. Uninoculated controls have only a faint odour of the medium.
As a control for the tests, Triclosan® (5-chloro-2-(2,4-dichlorophenoxy)phenol) was added to inoculated samples in a concentration of 0.05%.

[2] = tested on: Escherichia coli; test: Minimum inhibiting concentration, serial-dilution test
Description: (§1) Determination of the Minimum Inhibiting Concentration 5 The minimum inhibiting concentration (MIC) of beta-homocyclocitral was determined in a serial-dilution test against various bacteria.

[3] = tested on: Fusobacterium nucleatum; test: as above
Description: as §1

[4] = tested on: Porphyromonas gingivalis; test: as above
Description: as §1

[5] = tested on: Prevotella intermedia; test: as above
Description: as §1

[6] = tested on: Pseudomonas aeruginosa; test: as above
Description: as §1

[7] = tested on: Staphylococcus aureus; test: as above
Description: as §1

[8] = tested on: Streptococcus mutans; test: as above
Description: as §1

[9] = tested on: Veilonella parvula; test: as above
Description: as §1

[10] = tested on: total number of bacteria in the samples of saliva; test: Further test: total number of bacteria in samples of saliva; settings: concentration of 1000 ppm
[11] = tested on: Pseudomonas aruginosa; test: Further tests at 1000 ppm; settings: concentration of 1000 ppm
[12] = tested on: Escherichia coli; test: Further tests at 1000 ppm; settings: concentration of 1000 ppm
[13] = 0.05% added to inoculated samples at the start of the test, 37° C., a few days

Which “odour after the incubation period” value [1, 13] does the source give for `Oc1cc(Cl)ccc1Oc1ccc(Cl)cc1Cl` [Triclosan®, 5-chloro-2-(2,4-dichlorophenoxy)phenol, reference compound] here?
The value was “same faint odour of medium as the uninoculated samples”.

`CC1=C(CC=O)C(C)(C)CCC1` [beta-homocyclocitral, 2,6,6-trimethyl-1-cyclohexene-1-acetaldehyde] was tested. Which “odour after the incubation period” value ([1]; 0.01% added to inoculated samples) did it give?
The value was “a changed characteristic odour or a mixed odour was discernible in some cases”.

And the “odour after the incubation period” value ([1]; 0.025% added to inoculated samples)?
The value was “no odour”.

What about the “odour after the incubation period” value [1, 13] of the same compound?
Its value is “a slight characteristic odour is discernible”.

What about the “odour at sensory assessment” value ([1]; 0.05% added to the inoculated medium just one hour before the sensory assessment) of the same compound?
Its value is “unpleasant mixed odour of bad breath and a faint beta-homocyclocitral note”.

And the minimum effective concentration ([1]; no odour after the incubation period)?
Its minimum effective concentration is 0.025%.

What about the MIC [2] of the same compound?
The MIC was > 1000 µg/mL.

And the Type [2]?
Its Type is “No action up to 1000 ppm”.

What about the Type [3] of the same compound?
The Type was “bactericidal action”.

And the MIC ([3]; bactericidal)?
The MIC was 250 µg/mL (≈ 1500 µM).

And the MIC [4]?
Its MIC is 125 µg/mL (≈ 752 µM).

What about the MIC ([5]; bactericidal) of the same compound?
Its MIC is 250 µg/mL (≈ 1500 µM).

And the MIC ([5]; bacteriostatic)?
Its MIC is 125 µg/mL (≈ 752 µM).

And the MIC [6]?
Its MIC is > 1000 µg/mL.

What about the Type [6] of the same compound?
The Type was “No action up to 1000 ppm”.

And the MIC [7]?
The MIC was 500 µg/mL (≈ 3010 µM).

What about the Type [8] of the same compound?
The Type was “bactericidal action”.

And the MIC ([8]; bactericidal)?
The MIC was 500 µg/mL (≈ 3010 µM).

And the Type [9]?
The Type was “bactericidal action”.

And the MIC ([9]; bactericidal)?
Its MIC is 500 µg/mL (≈ 3010 µM).

What about the “reduction of the total number of bacteria in samples of saliva” value [10] of the same compound?
The value was “no significant reduction”.

And the “reduction with regard to Pseudomonas aruginosa” value [11]?
Its value is “no significant reduction”.

And the “reduction with regard to Escherichia coli” value [12]?
The value was “no significant reduction”.
